Several values for one entry are separate records, joined by “and”; a condition that tells them apart may be missing. Identical values can stand only once.
Columns and labels:
SK-HEP-1 cells = experiment: Protection of endothelial cells from homocysteine-induced cell death (MTS assay); format: cell-based, human; settings: for Mean (FIG. 14a, protection of SK-HEP-1 cells from Hcy in the presence of folate): folate 25 μM present, [GSCbl] = 15 μM, [CNCbl] = 15 μM, [MeCbl] = 12.5 μM, [HOCbl] = 17.5 μM, [GSH] = 100 μM; for Absorbance at 490 nm: single replicates Y1-Y6
Description: The effect of a constant concentration of NACCbl and GSCbl to protect cells against variable concentrations of homocysteine was assessed. […] Cell viability was determined by MTS® assay. Data shown in FIG. 4 are representative of means ±SE of 6 independent samples. FIG. 4 illustrates that NACCbl (▪) and GSCbl (▴) protect endothelial cells from the effect of homocysteine. […] Cell viability was determined by MTS® assay. […] There was a decrease in protection as homocysteine concentration increased, but there was still ˜60% survival at 50 μM homocysteine.
The data was normalized (log 2 and log 10) as shown in FIGS. 16 and 17 and Tables 16 and 17, respectively, below.

[1] = Decomposition in PBS at 37° C. monitored by UV/Vis spectrophotometry; format: physicochemical
Description: The decomposition of GSCbl, NACCbl, and HcyCbl in PBS at 37° C. was monitored by UV/Vis spectrophotometry.

Hsp32 = Hsp32 gene expression (RT-PCR, densitometry); format: cell-based, human; settings: SK-HEP-1; Sn (IX) protoporphyrin 25 μM; Quercitin 15 μM
Hsp70 = Hsp70 gene expression (RT-PCR, densitometry); settings: SK-HEP-1; Quercitin 15 μM
Description: Cells were plated into 6-, 12-, or 24-well cell culture clusters, at 2×10^3, 2×10^5, or 1×10^5 cells per well and incubated until 90% confluent. Treatments were applied as above.
Following incubation, cells were subjected to mRNA extraction followed by cDNA synthesis for each sample under test. Polymerase chain reaction cDNA templates were prepared for simplex PCR protocol. PCR products were then visualized using a UV Transilluminator and images captured using a Kodak ID gel imaging system. Densitometry and statistical analysis was then performed on each gene expression band image using PSP® v 10.0 running under Windows XP®.
mRNA extraction was performed using the Quickprep micro mRNA Purification Kit. Following incubation of cells post-treatment, the media was removed from the cells, adherent cells were re-suspended in 0.4 ml extraction buffer and 0.8 ml elution buffer at 65° C. was added.
A reaction mixture was prepared in individual microcentrifuge tubes containing 2 cDNA synthesis beads, 32 μl of the mRNA solution and 1 μl of pd(N)6. This mixture was incubated at 37° C. in a water bath for 60 minutes. After incubation, 27 μl of RNase-free DEPC treated water was added to each tube to make a total volume 60 μl. cDNA samples were prepared in duplicate. Sample 1 was used immediately in RT-PCR protocol.
Microcentrifuge tubes from puReTaq™Ready-To-Go™ PCR Beads containing one PCR bead were labeled for each sample required. Added to the PCR bead were 17 μl of RNase-free DEPC treated water, 1 μl sense primer, 1 μl anti-sense primer and 5 μl of the cDNA solution. RT-PCR conditions were as follows: Hsp70 and β-actin, pre-treatment step, 94° C. for 1 minute, followed by denaturing at 92° C. for 1 minute, annealing at 60° C. for 1 minute and extension at 72° C. for 1 minute. Total cycles, 30, post-treatment was then carried out at 72° C. for 10 minutes. For Hsp32, pre-treatment step, 95° C. for 2 minutes, followed by denaturing at 94° C. for 30 seconds, annealing at 58° C. for 1 minute and extension at 72° C. for 1 minute. […]

[2] = [Hcy] 30 μM, [NACCbl] = 12.5 μM, [NAC] = 45 μM
[3] = Conc. Hcy 0.000, NACCbl 30 μM, NAC 75 μM, n = 6
[4] = Conc. Hcy 1.780, NACCbl 30 μM, NAC 75 μM, n = 6
[5] = Conc. Hcy 3.125, NACCbl 30 μM, NAC 75 μM, n = 6
[6] = Conc. Hcy 6.250, NACCbl 30 μM, NAC 75 μM, n = 6
[7] = Conc. Hcy 12.500, NACCbl 30 μM, NAC 75 μM, n = 6
[8] = Conc. Hcy 25.000, NACCbl 30 μM, NAC 75 μM, n = 6
[9] = Conc. Hcy 50.000, NACCbl 30 μM, NAC 75 μM, n = 6
[10] = Conc. Hcy 100.000, NACCbl 30 μM, NAC 75 μM, n = 6
[11] = Conc. Hcy 200.000, NACCbl 30 μM, NAC 75 μM, n = 6

N[C@@H](CCC(=O)N[C@@H](CS)C(=O)NCC(=O)O)C(=O)O [GSH, γ-L-Glutamyl-L-cysteinyl-glycine, reference compound]
Mean (FIG. 14a, protection of SK-HEP-1 cells from Hcy in the presence of folate) (SK-HEP-1 cells; [2]): 1.409

C/C1=C2/[N-][C@H]([C@H](CC(N)=O)[C@@]2(C)CCC(=O)NC[C@@H](C)OP(=O)([O-])O[C@H]2[C@@H](O)[C@@H](n3cnc4cc(C)c(C)cc43)O[C@@H]2CO)[C@]2(C)N=C(/C(C)=C3N=C(/C=C4N=C1[C@@H](CCC(N)=O)C\4(C)C)[C@@H](CCC(N)=O)[C@]\3(C)CC(N)=O)[C@@H](CCC(N)=O)[C@]2(C)CC(N)=O.[Co+3].[OH-] [HOCbl, Hydroxocobalamin, reference compound]
Mean (FIG. 14a, protection of SK-HEP-1 cells from Hcy in the presence of folate) (SK-HEP-1 cells; [2]): 0.9498

CC1=C2N=C(C=C3N=C(C(C)=C4[N-]C(C(CC(N)=O)C4(C)CCC(=O)NCC(C)OP(=O)([O-])OC4C(CO)OC(n5cnc6cc(C)c(C)cc65)C4O)C4(C)N=C1C(CCC(N)=O)C4(C)CC(N)=O)C(CCC(N)=O)C3(C)C)C(CCC(N)=O)C2(C)CC(N)=O.NC(CC[S-])C(=O)O.[Co+3] [HcyCbl, D,L-homocysteinyl-cobalamin]
Kobs [1]: 0.0018 min⁻¹
t1/2 [1]: 6.6 h

C/C1=C2/[N-][C@H]([C@H](CC(N)=O)[C@@]2(C)CCC(=O)NC[C@H](C)OP(=O)([O-])O[C@H]2[C@@H](O)[C@@H](n3cnc4cc(C)c(C)cc43)O[C@@H]2CO)[C@]2(C)N=C(/C(C)=C3N=C(/C=C4N=C1[C@@H](CCC(N)=O)C\4(C)C)[C@@H](CCC(N)=O)[C@]\3(C)CC(N)=O)[C@@H](CCC(N)=O)[C@]2(C)CC(N)=O.[CH3-].[Co+3] [MeCbl, Methylcobalamin, reference compound]
Mean (FIG. 14a, protection of SK-HEP-1 cells from Hcy in the presence of folate) (SK-HEP-1 cells; [2]): 1.322

CC(=O)N[C@@H](CS)C(=O)O [NAC, N-Acetyl-L-Cysteine, reference compound]
Normalized Data Log 2, Mean (SK-HEP-1 cells; [3]): 84.288
Normalized Data Log 10, Mean (SK-HEP-1 cells; [3]): 100.000
Normalized Data Log 2, Mean (SK-HEP-1 cells; [4]): 69.880
Normalized Data Log 10, Mean (SK-HEP-1 cells; [4]): 83.752
Normalized Data Log 2, Mean (SK-HEP-1 cells; [5]): 60.687
Normalized Data Log 10, Mean (SK-HEP-1 cells; [5]): 73.385
Normalized Data Log 2, Mean (SK-HEP-1 cells; [6]): 58.837
Normalized Data Log 10, Mean (SK-HEP-1 cells; [6]): 71.298
Normalized Data Log 2, Mean (SK-HEP-1 cells; [7]): 45.397
Normalized Data Log 10, Mean (SK-HEP-1 cells; [7]): 56.141
Normalized Data Log 2, Mean (SK-HEP-1 cells; [8]): 41.900
Normalized Data Log 10, Mean (SK-HEP-1 cells; [8]): 52.198
Normalized Data Log 2, Mean (SK-HEP-1 cells; [9]): 24.035
Normalized Data Log 10, Mean (SK-HEP-1 cells; [9]): 32.051
Normalized Data Log 2, Mean (SK-HEP-1 cells; [10]): 13.738
Normalized Data Log 10, Mean (SK-HEP-1 cells; [10]): 20.439
Normalized Data Log 2, Mean (SK-HEP-1 cells; [11]): 11.135
Normalized Data Log 10, Mean (SK-HEP-1 cells; [11]): 17.503
Absorbance at 490 nm (SK-HEP-1 cells; Conc. of Hcy 0.000, NACCbl 30 μM, NAC 75 μM): 2.592 and 2.476 and 2.437 and 2.678 and 2.336 and 2.447
Absorbance at 490 nm (SK-HEP-1 cells; Conc. of Hcy 1.780, NACCbl 30 μM, NAC 75 μM): 2.225 and 1.903 and 1.947 and 2.310 and 2.187 and 2.206
Absorbance at 490 nm (SK-HEP-1 cells; Conc. of Hcy 3.725, NAC 75 μM): 1.890 and 2.003 and 1.784 and 1.946 and 1.958 and 1.801
Absorbance at 490 nm (SK-HEP-1 cells; Conc. of Hcy 6.250, NACCbl 30 μM, NAC 75 μM): 1.678 and 1.789 and 1.897 and 1.899 and 1.933 and 1.905
Absorbance at 490 nm (SK-HEP-1 cells; Conc. of Hcy 12.500, NACCbl 30 μM, NAC 75 μM): 1.675 and 1.232 and 1.339 and 1.590 and 1.602 and 1.622
Absorbance at 490 nm (SK-HEP-1 cells; Conc. of Hcy 25.000, NACCbl 30 μM, NAC 75 μM): 1.345 and 1.501 and 1.632 and 1.378 and 1.226 and 1.447
Absorbance at 490 nm (SK-HEP-1 cells; Conc. of Hcy 50.000, NACCbl 30 μM, NAC 75 μM): 0.890 and 0.821 and 1.034 and 1.227 and 0.799 and 1.045
Absorbance at 490 nm (SK-HEP-1 cells; Conc. of Hcy 100.000, NACCbl 30 μM, NAC 75 μM): 0.789 and 0.842 and 0.743 and 0.589 and 0.490 and 0.799
Absorbance at 490 nm (SK-HEP-1 cells; Conc. of Hcy 200.000, NACCbl 30 μM, NAC 75 μM): 0.567 and 0.668 and 0.623 and 0.490 and 0.721 and 0.788
Absorbance at 490 nm, Mean (SK-HEP-1 cells; SK-HEP-1, NACCbl 30 μM, NAC 75 μM, Hcy conc. 200.000, n = 6, label Hcy = Hcy alone): 0.643
Mean (FIG. 14, protection of SK-HEP-1 cells from Hcy) (SK-HEP-1 cells; [Hcy] 30 μM, [NAC] = 45 μM, [NACCbl] = 12.5 μM, [Folate] = 25 μM where named in the label, label Hcy/HCy = Hcy alone): 1.296
Mean (FIG. 14a, protection of SK-HEP-1 cells from Hcy in the presence of folate) (SK-HEP-1 cells; [2]): 1.438
Absorbance at 490 nm, Mean (SK-HEP-1 cells; as E80, Hcy conc. 0.000): 2.494
Absorbance at 490 nm, Mean (SK-HEP-1 cells; as E80, Hcy conc. 1.780): 2.130
Absorbance at 490 nm, Mean (SK-HEP-1 cells; as E80, Hcy conc. 3.125): 1.897
Absorbance at 490 nm, Mean (SK-HEP-1 cells; as E80, Hcy conc. 6.250): 1.850
Absorbance at 490 nm, Mean (SK-HEP-1 cells; as E80, Hcy conc. 12.500): 1.510
Absorbance at 490 nm, Mean (SK-HEP-1 cells; as E80, Hcy conc. 25.000): 1.421
Absorbance at 490 nm, Mean (SK-HEP-1 cells; as E80, Hcy conc. 50.000): 0.969
Absorbance at 490 nm, Mean (SK-HEP-1 cells; as E80, Hcy conc. 100.000): 0.709

O.O.O=c1c(O)c(-c2ccc(O)c(O)c2)oc2cc(O)cc(O)c12 [Quercitin, 2-(3,4-Dihydroxyphenyl)-3,5,7-trihydroxy-4H-1-benzopyran-4-one dihydrate]
Hsp32 gene expression (Hsp32): does not inhibit
Hsp70 gene expression (Hsp70): inhibits

C=CC1=C(C)c2cc3[n-]c(cc4[n-]c(cc5nc(cc1n2)C(C)=C5C=C)c(C)c4CCC(=O)O)c(CCC(=O)O)c3C.[Cl-].[Cl-].[Sn+4] [Sn(IX) protoporphyrin, 8,13-Bis(vinyl)-3,7,12,17-tetramethyl-21H, 23H-porphine-2,18dipropionic acid tin(IV) dichloride]
Hsp32 gene expression (Hsp32): inhibited

Reference: patent US20080113900A1, “Pharmaceutical compositions and therapeutic applications for the use of a synthetic vitamin B12 derivative, glutathionylcobalamin” (priority 2006, published 2008)
